Assays:
Assay type in all cases: cell-based, human
[1] = test system: cell cycle regulatory proteins in HL 60 cells; experiment: Western blot of cell cycle regulatory proteins; conditions: TB 60-150 μM, 15 h
Method: (§1) To further test this hypothesis, the dose effects of TB on the levels of cell cycle regulatory protein were conducted in four different human cancer cell lines, COLO 205 (p53 wild type), HT 29 (p53 […] mutant), Hep 3B (p53 partial deleted) and HL 60 (p53 null). […] The cells were rendered quiescent for 24 h, and then challenged with 10% FCS and treated with various concentrations of TB (60-150 μM) for additional 15 h. Protein extracts (100 μg/lane) were separated by SDS-PAGE, probed with specific antibodies, and detected using the NBT/BCIP system. Membranes were also probed with anti-GAPDH antibody to correct for differences in protein loading. As previously described (Chen R J, et. al., Toxicology & Applied Pharmacology 2000;169(2):132-41.), the frozen tumor was pulverized in liquid N2, and then mixed with lysis buffer (Tris-HCl 0.5 M, pH 6.8, SDS 0.4%). For cell cultures, the cells were seeded onto 150-mm dishes and grown in RPMI 1640 (for COLO 205, HT 29 and HL 60 cells) or MEM (for Hep 3B) supplemented with 10% FCS. After the cells had grown to subconfluence, they were rendered quiescent. The cells were released from quiescence with culture medium supplemented with 10% FCS. TB in 0.05% DMSO or 0.05% DMSO without TB was added to the cells at various concentrations and the mixture was allowed to incubate for 17 h. Western blot analysis was performed as previously described (Chen R J, et. al., Toxicology & Applied Pharmacology 2000;169(2):132-41; Lee W S, et. al., Circulation Research 1998;82(8):845-51.). Immunodetection was carried by probing with proper dilutions of specific antibodies at room temperature for 2 h. Anti-p21/Cip1, anti-p27/Kip1, anti-p53, anti-GAPDH monoclonal antibodies (Santa Cruz, Inc. CA); anti-cyclin B1, D1, and D3, anti-cdk2 and cdk4, and PCNA monclonal antibodies (Transduction Laboratories, Lexington, Ky.) were used at a concentration of 1:1,000 dilution. Anti-cyclin A and E polyclonal antibodies (Transduction, San Diego, Calif.) were used at a concentration of 1:250 dilution. […] Sigma Chemical Co., St. Louis, Mo.). In each experiment, membranes were also probed with anti-GAPDH antibody to correct for differences in protein loading.

[2] = test system: cell cycle regulatory proteins in HT 29 cells; experiment: Western blot of cell cycle regulatory proteins; conditions: TB 60-150 μM, 15 h; dose-dependent
Method: as §1

[3] = test system: cell cycle regulatory proteins in Hep 3B cells; experiment: Western blot of cell cycle regulatory proteins; conditions: TB 60-150 μM, 15 h
Method: as §1

COLO 205 cells = experiment: Flow cytometry (FACS) cell cycle analysis
Method: When they were returned to culture media containing 10% FCS and 0.05% DMSO (control) or 90 μM TB in 0.05% DMSO (which started them all on a new cell cycle) and, at various times thereafter, they were harvested for flow cytometry analysis. […] COLO 205 (A) and HT29 (B) cells were synchronized with 0.04% FCS for 24 h as described in Examples. After synchronization, the cells were then released into complete medium (10% FCS) containing 0.05% DMSO (left panel), or 90 μM TB in 0.05% DMSO (right panel). Percentage of cells in G0/G1, S, and G2/M phases of the cell cycle were determined using established CellFIT DNA analysis software. […] In Hep3B (D) and HL60 (E), TB caused the occurrence of apoptosis in a dose-dependent manner. […] FACS analysis of DNA content after 15 h release from quiescence by incubation in culture media supplemented with 10% FCS and various concentrations of TB in 0.05% DMSO. Percentage of cells in G0/G1, S, and G2/M phases of the cell cycle were determined using established CellFIT DNA analysis software.
The invention further tested whether TB can induce cell cycle arrest at a lower concentration with longer exposure. […] The COLO 205 cells were exposed to culture media supplemented with 10% FCS and various concentrations (1 and 5 μM) of TB in 0.05% DMSO for the indicated times. Media with and without TB were changed daily until flowcytometry analysis performed. Percentage of cells in G0/G1, S, and G2/M phases of the cell cycle were determined using established CellFIT DNA analysis software. Three samples were analyzed in each group, and values represent the mean±S.E.
The COLO 205 and HT 29 cells were synchronized as previously described. (Chen R J, et. al., Toxicology & Applied Pharmacology 2000;169(2):132-41.). After the cells had grown to 70-80% confluence, they were rendered quiescent by incubation for 24 h in RPMI 1640 containing 0.04% FCS, and challenged with 10% FCS. Then, after release using trypsin-EDTA, they were harvested at various times, washed twice with PBS/0.1% dextrose, and fixed in 70% ethanol at 4° C. Nuclear DNA was stained with a reagent containing propimdiamdiodine (50 DNase-free RNase (2 U/ml) and measured using a fluorescence-activated cell sorter (FACS). The population of nuclei in each phase of the cell cycle was determined using established CellFIT DNA analysis software (Becton Dickenson, San Jose, Calif.).

Hep 3B cells = experiment: Flow cytometry (FACS) cell cycle analysis; conditions: TB 10-150 μM, 15 h
HL 60 cells = experiment: Flow cytometry (FACS) cell cycle analysis; conditions: TB 10-150 μM, 15 h
Hep G2 cells = experiment: Flow cytometry (FACS) cell cycle analysis; conditions: various concentrations of TB, 15 h after release from quiescence; dose-dependent

CN(C/C=C/C#CC(C)(C)C)Cc1cccc2ccccc12 [TB, 1-Naphthalenemethanamine, N-(6,6-dimethyl-2-hepten-4-ynyl)-N-methyl-, (E)-]
levels of p53 and p21/Cip1 protein, dose effect [1]: did not change | levels of p27/Kip1 protein, dose effect ([1]; dose-dependent): significantly increased | levels of cyclin D3 and cdk4, dose effect [2]: decreased | levels of p53, p21/Cip1 and p27/Kip1 protein, dose effect [2]: increased | levels of p53 and p21/Cip1 protein, dose effect [3]: did not change | levels of p27/Kip1 protein, dose effect ([3]; dose-dependent): significantly increased | increase of G0/G1 population (COLO 205 cells; 60 μM TB alone, 15 h): about 2.3 fold | accumulation of cells at the G0/G1 phase (COLO 205 cells; 90 μM TB after release from quiescence): > 90% | G0/G1 cell cycle arrest at low concentration with longer exposure (COLO 205 cells; TB 1 μM for 3 days): arrested the COLO 205 cells at the G0/G1 phase | G0/G1 cell cycle arrest at low concentration with longer exposure (COLO 205 cells; TB 1 μM for 4 days, media changed daily): induce significant G0/G1 cell cycle arrest | G0/G1 arrest, dose effect (COLO 205 cells; various concentrations of TB, 15 h after release from quiescence, dose-dependent): induced G0/G1 arrest | apoptosis (presence of sub G1) (Hep 3B cells): dose-dependently caused the occurrence of apoptosis | G0/G1 arrest (Hep 3B cells; p53 partial deleted cells): did not induce G0/G1 arrest | apoptosis (presence of sub G1) (HL 60 cells): dose-dependently caused the occurrence of apoptosis | G0/G1 arrest (HL 60 cells; p53 null cells): did not induce G0/G1 arrest | G0/G1 arrest, dose effect (Hep G2 cells): induced G0/G1 arrest

From patent publication US20050032904A1, “Composition and use of allylamine derivatives” (priority 2003, published 2005)
